This is an account of results in PMC3989846 (Malaria Journal, 2014).

The nature of this series: Plasma pharmacokinetics after single intravenous or intragastric dose. In kind it is in vivo, male ICR mice. The note with it: for Cmax / bioavailability / AUC(0-t) / MRT / AUC / Tmax / half-life / clearance / Vd: ICR, mouse; for bioavailability: intragastric 20 mg/kg vs intravenous 5 mg/kg, read-out: Absolute bioavailability; for AUC: read-out: AUCinfininty; for half-life: read-out: t1/2 elimination (converted); for Vd: read-out: Vz. The method, then:
PK studies were performed using both intravenous (IV) and intragastric (IG) administration. For each time point to be acquired, three male ICR mice per time-point, aged seven weeks, were dosed at either PQ or TQ at 5 mg/kg (IV) or 20 mg/kg (IG). Drug vehicle for IV studies was 0.9% saline solution, and the formulated drugs were administered in a volume of 100 μL/20 g of body weight. For IG dosing, the drug vehicle was 0.5% HECT, administered at 100 μL/20 g. At each time point, plasma and liver samples were collected. Whole blood was collected by cardiac puncture. […] Following the separation of appropriate aliquots, plasma was obtained from the whole blood via centrifugation. All liquid and tissue samples were immediately preserved on dry ice and lately stored at -80°C until analytical work was performed.
Sample was prepared by adding twice the normal volume of acetonitrile containing indomethacin internal standard (IS). The samples were mixed for 1 minute, centrifugation for 5 minutes, and the supernatant was transferred to an autosampler injection vial prior to separation by LC/MS/MS. Standard curve and quality control (QC) samples were generated by spiking interference free mouse plasma samples with known amounts of PQ, TQ and IS. Standard curve, QC, and assay samples were prepared and then 40 μL aliquots were injected into the LC/MS/MS system for chromatographic separation and subsequent mass spectrometric detection.
Chromatography was performed using a Surveyor pump (Thermo Scientific, Waltham, MA) with Waters XTerra MS C18 50 mm × 2.1 mm id, 3.5 μm particle size columns (Waters Corp., Milford, MA). Mobile phase consisted of a water/0.1% formic acid (Solvent A)/acetonitrile/0.1% formic acid (Solvent B) gradient. […] Flow rate was 300 μL/min. Samples were injected using an HTC PAL autosampler (LEAP Technologies, Carrboro, NC). Tandem mass spectrometry was performed using a TSQ Quantum AM (Thermo Scientific).
Drug concentrations were generated for each sample taken from animals dosed with both test drugs. A measured plasma and liver drug concentration vs. time curve was produced, in graphic and tabular form, for each subject on both linear/linear and log/linear scales, for the parent compound. Mean plasma drug concentration vs. time curves were also prepared separately. For the determination of initial approach to PK parameters of TQ and PQ in plasma and liver tissues after systemic application, a non-compartmental analysis was performed using Phoenix (version 6.1; Pharsight Corp., Mountain View, CA). Maximum plasma and liver concentration (Cmax), and time to maximum concentration (tmax) of TQ and PQ were obtained from the plasma and liver drug concentration-time curves. The elimination half-life (t1/2) was calculated from In2/kel, which is the elimination rate constant calculated from the log concentration-time plot. The area under the curve (AUC) and the area under the first moment curve (AUMC) were determined by the linear trapezoidal rule with extrapolation to infinity based on the concentration of the last time point divided by the terminal rate constant. Mean clearance rate (CL) was determined by dividing the dose by the AUCinf for intravenous injection for plasma samples. Absolute bioavailability was calculated by taking the dose-corrected area under the curve (AUC) from non-intravenous dosing divided by the AUC derived from intravenous dosing. Mean residence time (MRT) was determined by dividing the area under the first moment curve (AUMC) by AUC. The volume of the central compartment (Vz) and volume of the tissue compartment (Vz/F) were calculated as the product of CL and MRT.

[1] abbreviates: male, po, intragastric 20 mg/kg, plasma.
[2] abbreviates: male, intravenous 5 mg/kg, plasma.
Setting [3] is: male, in vivo, po, intragastric 20 mg/kg, plasma.
Setting [4] is: male, in vivo, intravenous 5 mg/kg, plasma.

Usually Cmax stands for the highest concentration seen after dosing. A word on the Vz: it is a proportionality between amount in the body and measured concentration, not a real space. The low end stands for confinement near the circulation, the high end for extensive tissue distribution. In general, AUC(0-t) refers to exposure summed from dosing to a finite time, without extrapolation to infinity. The low end stands for less exposure, the high end for more exposure. As a reminder, the MRT is a mean duration of stay, worked out from the concentration-time curve. One may read the clearance as the rate of elimination divided by the concentration. Low values mean a low capacity for elimination, high ones a high capacity for elimination.

Structures are written as SMILES. Like-named read-outs stand apart in the source and are kept apart here. Some results are limits rather than exact numbers.

Regarding `COc1cc(C)c2c(Oc3cccc(C(F)(F)F)c3)c(OC)cc(NC(C)CCCN)c2n1` (centres unmarked) [Tafenoquine, tafenoquine], the Cmax (intravenous 5 mg/kg, plasma, male mice) was found to be 660 ± 130 ng/mL. Where the note is “intragastric 20 mg/kg, plasma”, this compound had a Cl of 2.5 ± 0.5 mL/min/kg and a Vz of 10.60 ± 1.22 L/kg. In addition, the bioavailability (male, oral, plasma) was 101 ± 37.5%. Under setting [1], the AUC(0-t) stood at 138000 ± 24400 ng·h/mL, the Cmax came out at 2040 ± 590 ng/mL, the mean residence time MRT is 62.1 ± 2.3 h and the AUC was found to be 139000 ± 24900 ng·h/mL. Also, the half-life under setting [1] was 50.9 ± 4.23 h. Moreover, the Tmax (male, po, intragastric 20 mg/kg, plasma, read-out: Tmax) worked out at 11.3 ± 5.37 h. Also, under setting [2], the AUC(0-t) stood at 29600 ± 6740 ng·h/mL, the MRT stood at 55.9 ± 3.86 h, the clearance was 2.83 mL/min/kg and the AUC is 30100 ± 6650 ng·h/mL. For the same compound, under setting [2], the Vd was found to be 16.8 ± 6.44 L/kg and the half-life is 66.3 ± 10.3 h. Besides, the Tmax (male, intravenous 5 mg/kg, plasma, read-out: Tmax) amounted to 1.36 ± 1.11 h. The “absolute bioavailability of oral TQ, fold greater than oral PQ” value (oral) was 3.5 fold. The “clearance as % of the hepatic blood flow” value (oral CL 0.15 L/hours/kg) was 3%. Moreover, for the setting “oral, plasma”, the “AUCinf of oral TQ, fold higher than oral PQ” value turned out to be 94 fold; the “Cmax of oral TQ, fold higher than oral PQ” value is listed as “approximately 4 fold”; the “elimination clearance of oral TQ, fold slower than oral PQ” value turned out to be 370 fold. Also, the “absorption rate of oral TQ, fold slower than PQ” value (oral, plasma, mice) is 22.7 fold. Also, the “duration of quantifiable concentrations” value (single 20 mg/kg dose) is on record as “more than two weeks”.

As to `COc1cc(NC(C)CCCN)c2ncccc2c1` (centres unmarked) [Primaquine, primaquine], for the setting “in vivo, intravenous 5 mg/kg, plasma, male mice”, the Cmax turned out to be 1210 ± 210 ng/mL. Moreover, for the setting “intragastric 20 mg/kg, plasma”, the Cl is 965.7 ± 342 mL/min/kg and the Vz stood at 154.66 ± 61.83 L/kg. Under “intravenous 5 mg/kg, plasma, 5 mg/kg”, this compound came in with an AUCinfininty of 1260 ± 140 ng·h/mL. Under “male, in vivo, iv, 5 mg/kg, intravenous 5 mg/kg, plasma”, the AUC was determined as 1200 ng·h/mL. The AUC (male, in vivo, po, 20 mg/kg, intragastric 20 mg/kg, plasma) stood at 1310 ± 410 ng·h/mL. Under setting [3], the AUC(0-t) came out at 1260 ± 400 ng·h/mL, the highest level (Cmax) was 530 ± 70 ng/mL and the MRT was found to be 2.28 ± 0.1 h. Also, the Tmax (male, in vivo, po, intragastric 20 mg/kg, plasma, read-out: Tmax) amounted to 0.5 h. Further, the Tmax (male, in vivo, absorbed from the gastrointestinal tract, mice, read-out: time to peak plasma levels) was not above 0.0833 h. Moreover, the bioavailability (male, in vivo, plasma) stood at 28.3 ± 6.93%. Besides, under setting [4], the AUC(0-t) is 1200 ± 130 ng·h/mL, the MRT stood at 0.68 ± 0.02 h, the clearance is 69.8 mL/min/kg and the Vd came out at 3.85 ± 0.71 L/kg. Moreover, under “male, in vivo, intravenous 5 mg/kg, plasma, read-out: Tmax”, the Tmax worked out at 0.08 h.
